Here are results for 18 molecules from ChEMBL document CHEMBL4706548, “3-Methylthiazolo[3,2-a]benzimidazole-benzenesulfonamide conjugates as novel carbonic anhydrase inhibitors endowed with anticancer activity: Design, synthesis, biological and molecular modeling studies” (Eur J Med Chem, 2020).

The target in one test is Carbonic anhydrase 9 (Homo sapiens, UniProt Q16790). The test can be described thus: Inhibition of human CA9 preincubated for 15 mins prior to testing by phenol red-based stopped-flow CO2 hydration assay.
In the next test the target is Carbonic anhydrase 1 (Homo sapiens, UniProt P00915). The test can be described thus: Inhibition of human CA1 preincubated for 15 mins prior to testing by phenol red-based stopped-flow CO2 hydration assay.
Sequence of Carbonic anhydrase 1 (P00915 whole entry): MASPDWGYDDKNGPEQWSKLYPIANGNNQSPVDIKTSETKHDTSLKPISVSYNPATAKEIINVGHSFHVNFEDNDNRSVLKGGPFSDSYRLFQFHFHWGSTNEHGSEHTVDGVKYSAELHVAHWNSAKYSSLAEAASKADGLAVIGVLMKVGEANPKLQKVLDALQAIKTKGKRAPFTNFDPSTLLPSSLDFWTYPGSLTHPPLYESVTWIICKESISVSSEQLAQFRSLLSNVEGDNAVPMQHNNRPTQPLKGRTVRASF
In test [1] the test system is MCF7. In words: Antiproliferative activity against human MCF7 cells assessed as reduction in cell viability incubated for 48 hrs under normaxic condition by MTT assay. The note with it: MCF7, 48 h.
Test [2] deals with MCF7. The test can be described thus: Antiproliferative activity against human MCF7 cells assessed as reduction in cell viability incubated for 48 hrs under chemically-induced hypoxic condition by MTT assay. The note with it: MCF7, 48 h.
The test system of test [3] is MDA-MB-231. The test can be described thus: Antiproliferative activity against human MDA-MB-231 cells assessed as reduction in cell viability incubated for 48 hrs under normaxic condition by MTT assay. The note with it: MDA-MB-231, 48 h.
The test system of test [4] is MDA-MB-231. In words: Antiproliferative activity against human MDA-MB-231 cells assessed as reduction in cell viability incubated for 48 hrs under chemically-induced hypoxic condition by MTT assay. The note with it: MDA-MB-231, 48 h.
Test [5] concerns MCF7. In words: Induction of cell cycle arrest in human MCF7 cells assessed as decrease in G0/G1 cells at IC50 concentration incubated for 24 hrs by propidium iodide staining based flow cytometry (reference value: 52.63%). It is filed as functional. The arrangement: scale not given: the % may be the effect or the level left.
Test [6] relates to MDA-MB-231. In words: Induction of cell cycle arrest in human MDA-MB-231 cells assessed as decrease in G0/G1 cells at IC50 concentration incubated for 24 hrs by propidium iodide staining based flow cytometry (reference value: 56.42%). It is filed as functional. The arrangement: scale not given: the % may be the effect or the level left.
Test [7] deals with MCF7. The test can be described thus: Induction of apoptosis in human MCF7 cells assessed as early apoptotic cells at […] measured after 24 hrs by Annexin V-FITC/propidium iodide staining based flow cytometry (reference value: 0.42 %). Further details: dose or concentration left out as unconfirmed. It is filed as functional.
The subject of test [8] is MCF7. The test can be described thus: Induction of apoptosis in human MCF7 cells assessed as late apoptotic cells at […] measured after 24 hrs by Annexin V-FITC/propidium iodide staining based flow cytometry (reference value: 0.29 %). It is filed as functional. The arrangement: dose or concentration left out as unconfirmed.
Test [9] concerns MCF7. In words: Induction of apoptosis in human MCF7 cells assessed as necrotic cells at […] measured after 24 hrs by Annexin V-FITC/propidium iodide staining based flow cytometry (reference value: 1.15 %). It is filed as functional. Further details: dose or concentration left out as unconfirmed.
For test [10], the system named is MDA-MB-231. The test can be described thus: Induction of apoptosis in human MDA-MB-231 cells assessed as early apoptotic cells at […] measured after 24 hrs by Annexin V-FITC/propidium iodide staining based flow cytometry (reference value: 0.56 %). It is filed as functional. Further details: dose or concentration left out as unconfirmed.
The test system of test [11] is MDA-MB-231. The test can be described thus: Induction of apoptosis in human MDA-MB-231 cells assessed as late apoptotic cells at […] measured after 24 hrs by Annexin V-FITC/propidium iodide staining based flow cytometry (reference value: 0.24 %). Further details: dose or concentration left out as unconfirmed. It is filed as functional.
Test [12] concerns MDA-MB-231. In words: Induction of apoptosis in human MDA-MB-231 cells assessed as necrotic cells at […] measured after 24 hrs by Annexin V-FITC/propidium iodide staining based flow cytometry (reference value: 0.64 %). It is filed as functional. The arrangement: dose or concentration left out as unconfirmed.

SMILES strings stand for the structures.

With `Cc1c(C(=O)/C=C/Nc2cccc(S(N)(=O)=O)c2)sc2nc3ccccc3n12`, at Carbonic anhydrase 9, the affinity corresponds to a Ki of 813 nM.

In the case of `Cc1c(C(=O)/C=C/Nc2cc(Cl)c(S(N)(=O)=O)cc2S(N)(=O)=O)sc2nc3ccccc3n12`, on Carbonic anhydrase 9, the affinity corresponds to a Ki of 30.8 nM.

At Carbonic anhydrase 9, `C/C(=N\Nc1ccc(S(N)(=O)=O)cc1)c1sc2nc3ccccc3n2c1C` showed a Ki of 73.1 nM.

For `Cc1c(C(=O)/C=C/Nc2cccc(C(=O)O)c2)sc2nc3ccccc3n12`, the Ki at Carbonic anhydrase 1 is more than 10000 nM; at Carbonic anhydrase 9, 14500 nM.

`Cc1c(NC(=O)Nc2cccc(S(N)(=O)=O)c2)sc2nc3ccccc3n12` had an inhibitory constant (Ki) on Carbonic anhydrase 9 of 76.7 nM.

For the molecule `Cc1ccc(N/C=C/C(=O)c2sc3nc4ccccc4n3c2C)cc1S(N)(=O)=O`, at Carbonic anhydrase 9, the Ki is 6.2 nM. Further, the IC50 in the test with MCF7 [1] was 1510 nM; with MCF7 [2], 2360 nM; with MDA-MB-231 [3], 9370 nM; in the test with MDA-MB-231 [4], 4810 nM. The Activity is listed as 34.36% in the test on MCF7 [5]; 26.47% in the test with MDA-MB-231 [6]; 3.71% in the test with MCF7 [7]; 17.16% in the test on MCF7 [8]; 6.04% with MCF7 [9]; 7.21% in the test on MDA-MB-231 [10]. Further, the Activity in the test on MDA-MB-231 [11] turned out to be 15.64%; in the test on MDA-MB-231 [12], 11.22%.

Regarding `Cc1c(NC(=O)Nc2ccc(S(N)(=O)=O)cc2)sc2nc3ccccc3n12`, the affinity on Carbonic anhydrase 9 corresponds to a Ki of 63.3 nM.

`Cc1c(C(=O)/C=C/NNc2ccc(S(N)(=O)=O)cc2)sc2nc3ccccc3n12` showed an inhibitory constant (Ki) on Carbonic anhydrase 9 of 12.3 nM.

For the molecule `Cc1c(NC(=O)NNC(=O)c2ccc(S(N)(=O)=O)cc2)sc2nc3ccccc3n12`, the Ki on Carbonic anhydrase 9 is 53.1 nM.

Consider `C/C(=N\NC(=O)c1ccc(S(N)(=O)=O)cc1)c1sc2nc3ccccc3n2c1C`, for which the Ki on Carbonic anhydrase 9 is 5.5 nM. Further, the 50% inhibitory concentration (IC50) with MCF7 [1] stood at 20400 nM; with MCF7 [2], 29400 nM; in the test with MDA-MB-231 [3] it was 9910 nM; with MDA-MB-231 [4], 6790 nM.

`Cc1c(C(=O)/C=C/NCc2ccc(S(N)(=O)=O)cc2)sc2nc3ccccc3n12` yielded a Ki on Carbonic anhydrase 9 of 55.9 nM.

`Cc1c(C(=O)/C=C/Nc2ccc(C(=O)O)cc2)sc2nc3ccccc3n12` came in with a Ki on Carbonic anhydrase 9 of 830 nM.

`Cc1c(C(=O)/C=C/Nc2ccc(S(N)(=O)=O)cc2)sc2nc3ccccc3n12` yielded an inhibition constant (Ki) at Carbonic anhydrase 9 of 36.6 nM.

Regarding `Cc1c(NC(=O)NCCc2ccc(S(N)(=O)=O)cc2)sc2nc3ccccc3n12`, the inhibitory constant (Ki) on Carbonic anhydrase 9 was found to be 29.7 nM.

Regarding `Cc1c(C(=O)/C=C/Nc2ccccc2S(N)(=O)=O)sc2nc3ccccc3n12`, on Carbonic anhydrase 9, the inhibition constant Ki is 498 nM.

With `Cc1c(C(=O)/C=C/NCCc2ccc(S(N)(=O)=O)cc2)sc2nc3ccccc3n12`, affinity on Carbonic anhydrase 9 was put at a Ki of 20.5 nM.

The molecule `Cc1c(NC(=O)Nc2ccccc2S(N)(=O)=O)sc2nc3ccccc3n12` yielded an inhibition constant (Ki) on Carbonic anhydrase 9 of 831 nM.

On Carbonic anhydrase 9, `Cc1c(C(=O)/C=C/NNC(=O)c2ccc(S(N)(=O)=O)cc2)sc2nc3ccccc3n12` showed a Ki of 9.7 nM. The 50% inhibitory concentration (IC50) in the test on MCF7 [1] amounted to 8070 nM; with MCF7 [2], 9380 nM; with MDA-MB-231 [3], 14200 nM; with MDA-MB-231 [4], 15200 nM.
